Tests used:
[1] = test system: strychnine-induced allodynia; conditions: lumbar intrathecal
Protocol: Injections into the 6th lumbar intrathecal space were performed according to the method of Hylden and Wilcox (Brain Research 217: 212-215, 1981). The total volume used for injection in all experiments was 5 microliters of artificial cerebrospinal fluid (aCSF). In mice anesthetized with isoflurane, strychnine at 200 micromolar in 5 microliters of aCSF was injected either alone or in combination with compound (Ia) at concentrations of 4 to 8 millimolar in a total volume of 5 microliters of aCSF. In each experiment 2 mice were injected with 5 microliters of solution within one minute of each other. One of the mice received strychnine 200 micromolar in aCSF (control) and the other received the same volume with strychnine 200 micromolar in combination with the test compound (Ia). The mice were placed in a container designed such that they were unaware of the other, but could be simultaneously observed. The presence of flinching, scratching or vocalization in response to touching with a fine hair was noted every two minutes. Responses limited to lumbar segments 5 and 6, as well as originating from more caudal nerve distribution were considered as positive. A continuous video recording was made of all responses. Each experiment consisted of 6 to 9 pairs of mice. The blinded observer decided which animal had the greatest response to stimuli. A Wilcoxon signed rank test was used to determine the statistical significance of the results.

[2] = test system: strychnine-induced allodynia; format: in vivo, mouse; conditions: for effect on hyperalgesia or allodynia (vocalization, flinching, scratching): 4 millimolar with strychnine 200 micromolar in 5 microliters aCSF, p<0.01; for effect on hyperalgesia or allodynia (vocalization, flinching, scratching) / behavior of mice treated with compound and strychnine / side effects in treated animals: cisterna magna; for behavior of mice treated with compound and strychnine: 4 millimolar with strychnine 200 micromolar, compared with aCSF control; for side effects in treated animals: 4 millimolar; for analgesia against trigeminal hyperalgesia or allodynia compared with carbamazepine / analgesia against trigeminal hyperalgesia or allodynia compared with morphine: overall summary
Protocol: Strychnine when administered alone to the intact rodent mimics the allodynia of chronic pain resulting from damage to inhibitory amino acid functions in the central nervous system.
In the present example, injections into the cisterna magna of the mouse were performed as described by Reijneveld, Taphoorn, and Voerst (Journal of Neurooncology 42: 137-142, 1999). Each series of experiments consisted of 6 to 9 pairs of mice. […] In each session, two mice were injected with the strychnine solution within one minute of each other. […] A continuous video recording was made of all responses.

[3] = test system: pain of formalin injection in the mouse foot; assay: Formalin hindpaw licking test, lumbar intrathecal pre-treatment; format: in vivo, mice; conditions: for activity against peripherally induced pain, administered to the lumbar cord: overall summary; for cumulative paw licking / licking, early phase (reflecting acute pain) / licking, late phase (reflecting chronic pain): 250 micromolar in 5 microliters, lumbar intrathecal; for cumulative paw licking: 5 minutes before formalin, 40 min, p-value<0.001; for licking, early phase (reflecting acute pain) / licking, late phase (reflecting chronic pain): FIG. 4
Protocol: The effects of compound (Ib) and (Ic) were determined in the acute and chronic peripheral pain model according to Kolesnikov, Cristea, Oksman, Torosjan, and Wilson (Brain Research 17: 217-223, 2004). Use of this model involves pre-treatment with the test compound and injection of formalin (5% in 20 microliters) into the right hindpaw of mice. Groups of mice (n=10) were injected intrathecally into the lumbar segment with compound (Ib) or (Ic) at 250 micromolar in 5 microliters, at 5 minutes prior to subcutaneous formalin injection into the right hindpaw. The mice were monitored for 40 min for licking activity and assessed according to the method of Abbott, Franklin, and Westbrook (Pain 60: 91-102, 1995).

[4] = test system: pain of formalin injection in the mouse foot; assay: Formalin hindpaw licking test, intravenous pre-treatment; format: in vivo, mice; conditions: for analgesia in peripherally induced pain, intravenous administration: overall summary
Protocol: Groups of mice (n=10) were injected intravenously with a dose of 500 mg/kg of compound (Ia) at 10 minutes prior to subcutaneous formalin injection into the right hindpaw. After the injection of formalin (5% in 20 microliters), the animals were monitored for 40 min for licking activity.

[5] = Overall behavioral observation of the animals studied; format: in vivo; conditions: all animals studied
[6] = Rotarod test (ataxia, central toxicity) after intravenous administration; conditions: for rotarod performance versus control saline and pre- versus post-injection: 500 mg/kg, 3 ml/kg, tail vein, 10 mice per group, ANOVA p<0.05
Protocol: Changes in central nervous system behavior viewed as ataxia were measured using the rotarod procedure in mice, described by Vaupel, McConn, and Cone (Journal of Pharmacology & Experimental Therapeutics, 230: 20-27, 1984). A 27-mm diameter rod was rotated at 5 rpm. At least 1 day before testing, mice were trained in three sessions on the rod for two consecutive 5 minute trials, separated by a 5 minute rest period. During the tests, each trial on the rotarod was limited to a 120 seconds maximum. For all experiments two control trials obtained 6 minutes apart preceded the injection (500 mg/kg, 3 ml/kg) of compound (Ib) or (Ic) into the tail vein. Each mouse was then given 2 trials, with 6 minutes between trials after the injection.
The data were analyzed as means±SEM of 10 mice in each group, and examined by analysis of variance (ANOVA) for multiple comparisons with the single control group. Level of significance was set to 5% (p<0.05).

Structure (SMILES)	effect on hyperalgesia or allodynia (vocalization, flinching, scratching) ([2]; FIG. 1)	behavior of mice treated with compound and strychnine [2]	side effects in treated animals [2]	analgesia against trigeminal hyperalgesia or allodynia compared with carbamazepine [2]	analgesia against trigeminal hyperalgesia or allodynia compared with morphine [2]	activity against peripherally induced pain, administered to the lumbar cord [3]	behavioral toxicity [5]	rotarod performance versus control saline and pre- versus post-injection [6]	cumulative paw licking [3]	licking, early phase (reflecting acute pain) [3]	licking, late phase (reflecting chronic pain) [3]	analgesia in peripherally induced pain, intravenous administration [4]	other results
CCC(C)(N)C(=O)O (racemic) [(Ia), Isovaline (2-Amino-2-methylbutanoic acid)]	a great reduction and a total blockade of hyperalgesia or allodynia	identical to the mice which received the aCSF control injection without strychnine	no side effects such as sedation, movement disorders, or abnormal behavior	surpassed the analgesia produced by carbamazepine	to a much greater degree than the tested reference opioid, morphine	active against acute and chronic pain induced peripherally	no observed behavioral toxicity	–	–	–	–	–	pairs of mice in which blinded observer identified presence of compound ([1]; 8 millimolar plus strychnine 200 micromolar, 5 microliter, FIG. 3, p<0.01): 6 out of 6; effect of sole administration (without strychnine) ([1]; 25 microliters at 10 millimolar, no strychnine): did not produce a significant result; duration of effect [1]: at least 60 minutes; sedation, movement disorders, abnormal behaviour in treated animals ([1]; 8 millimolar): no sedation, movement disorders, or abnormal behaviour; behavior of treated mice without concomitant strychnine injection ([1]; no strychnine, compared with aCSF control): identical to those mice that received aCSF control injection; licking, late phase (reflecting chronic pain) ([4]; 500 mg/kg intravenously, 10 minutes before formalin, 10 to 40 minutes, FIG. 5, p<0.001): significantly reduced
CCC(C)(N)C(=O)O (single isomer, unassigned) [(Ib), Isovaline (2-Amino-2-methylbutanoic acid)]	The same effects were obtained	identical to the mice which received the aCSF control injection without strychnine	no side effects such as sedation, movement disorders, or abnormal behavior	surpassed the analgesia produced by carbamazepine	to a much greater degree than the tested reference opioid, morphine	active against acute and chronic pain induced peripherally	no observed behavioral toxicity	did not show significant differences	significantly reduced	significantly reduced	significantly reduced	effective in producing analgesia	–
CCC(C)(N)C(=O)O (single isomer, unassigned) [(Ic), Isovaline (2-Amino-2-methylbutanoic acid)]	The same effects were obtained	identical to the mice which received the aCSF control injection without strychnine	no side effects such as sedation, movement disorders, or abnormal behavior	surpassed the analgesia produced by carbamazepine	to a much greater degree than the tested reference opioid, morphine	active against acute and chronic pain induced peripherally	no observed behavioral toxicity	did not show significant differences	significantly reduced	significantly reduced	significantly reduced	effective in producing analgesia	–
CCC(C)(N)C(=O)O (centres unmarked) [Formula (I), Isovaline (2-Amino-2-methylbutanoic acid)]	–	–	–	–	–	–	–	–	–	–	–	–	central nervous system toxicity, such as ataxia or other disturbances in conscious behavior ([6]; mouse, in vivo): no evidence; blood-brain-barrier crossing ([4]; inferred from analgesia after intravenous administration): crosses the blood-brain-barrier
NC(=O)N1c2ccccc2C2OC2c2ccccc21 (centres unmarked) [carbamazepine epoxide, reference compound]	–	–	–	–	–	–	–	–	–	–	–	–	analgesic effect ([2]; 30 mg/kg body weight, FIG. 1): an analgesic effect
CN1CC[C@]23c4c5ccc(O)c4O[C@H]2[C@@H](O)C=C[C@H]3[C@H]1C5 [morphine, reference compound]	–	–	–	–	–	–	–	–	–	–	–	–	responses to intracisternal injections (analgesia) ([2]; 1 mg/kg body weight, intracisternal, FIG. 1): poor or absent

From patent US8278355B2, “Isovaline for treatment of pain” (Therexcell Pharma Inc., priority 2006, dated 2012)
